This passage reports IC50 results from US20240109900A1, “AZABICYCLIC SHP2 INHIBITORS” (IRBM S.P.A., priority 2021, published 2024).

Broadly, the pIC50 is the negative decadic logarithm of the IC50, by convention in mol/L.

pIC50: −log10 of the molar value. Read-outs that look alike come from different tables or passages of the source.

In assay [1] the target is SHP-2 enzyme (Met1-Leu525) (Homo sapiens (Human), UniProt Q06124). Nature of the assay: SHP2 inhibition enzymatic assay. It is filed as biochemical. The settings on record: 0.5 nM SHP-2 activated by 500 nM IRS1 peptide, 75 μM DiFMUP substrate; read-out: SHP2wt-IC50. Summed up: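 SHP-2 (Met1-Leu525), 0.5 nM, activated with 500 nM IRS1 bis-phosphopeptide, preincubated 30 min with compounds in HEPES pH 7.2 buffer with 5 mM DTT. 75 μM DiFMUP added for 30 min at room temperature, stopped with bpV; fluorescence read. IC50 from four-parameter logistic fit of % inhibition.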

Assay [2] deals with ERK phosphorylation in KYSE-520 cells. The experiment in a line: Phospho-ERK cellular assay. It is filed as cell-based. The settings on record: KYSE-520 cells, 2 h at 37° C., phospho-ERK1/2 (Thr202/Tyr204) TR-FRET, read-out: PERK IC50. Summed up:
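TR-FRET read-out of ERK1/2 Thr202/Tyr204 phosphorylation was taken after overnight antibody incubation at room temperature. Before that, KYSE-520 cells were treated 2 h at 37 °C with compound dilutions and lysed 30 min. Percent inhibition relative to vehicle and cell-free wells was fitted four-parametrically to give IC50.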
For orientation: In TR-FRET formats the signal depends on donor and acceptor labels being close together.

Chain of SHP-2 enzyme (Met1-Leu525) (Q06124 1-525): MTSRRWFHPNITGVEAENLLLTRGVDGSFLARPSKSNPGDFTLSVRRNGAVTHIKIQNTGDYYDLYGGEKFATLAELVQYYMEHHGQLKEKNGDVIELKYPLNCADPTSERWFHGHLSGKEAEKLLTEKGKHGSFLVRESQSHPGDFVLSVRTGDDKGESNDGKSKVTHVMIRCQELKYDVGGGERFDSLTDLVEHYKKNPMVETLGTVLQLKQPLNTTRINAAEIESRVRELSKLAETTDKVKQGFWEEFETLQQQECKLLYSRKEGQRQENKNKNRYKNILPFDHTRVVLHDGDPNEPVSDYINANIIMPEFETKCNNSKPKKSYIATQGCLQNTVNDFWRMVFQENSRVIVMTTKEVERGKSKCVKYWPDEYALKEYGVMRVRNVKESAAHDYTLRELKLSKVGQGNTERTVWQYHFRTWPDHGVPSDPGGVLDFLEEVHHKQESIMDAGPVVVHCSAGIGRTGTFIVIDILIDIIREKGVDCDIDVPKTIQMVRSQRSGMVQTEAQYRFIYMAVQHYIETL

For `NC[C@]1(c2ccccc2F)[C@@H]2CCN(c3cnc4c(Sc5ccnc(N)c5Cl)n[nH]c4n3)C[C@@H]21` [Example 397, 4-((6-((1S,6R,7R)-7-(aminomethyl)-7-(2-fluorophenyl)-3-azabicyclo[4.1.0]heptan-3-yl)-1H-pyrazolo[3,4-b]pyrazin-3-yl)thio)-3-chloropyridin-2-amine], the pIC50 in assay [1] is over 6.30; in assay [2] (Homo sapiens, KYSE-520, 2 h) it was over 6.00.
As to `NC[C@]1(c2ccccc2F)[C@@H]2CCN(c3cnc4nc(Sc5ccnc(-n6cccn6)c5Cl)ccc4n3)C[C@@H]21` [Example 398, ((1S,6R,7R)-3-(6-((3-chloro-2-(1H-pyrazol-1-yl)pyridin-4-yl)thio)pyrido[2,3-b]pyrazin-2-yl)-7-(2-fluorophenyl)-3-azabicyclo[4.1.0]heptan-7-yl)methanamine], the pIC50 is over 6.30 in assay [1] and over 6.00 in assay [2] (Homo sapiens, KYSE-520, 2 h).
Turning to `COc1ccc(-c2n[nH]c3nc(N4CC[C@@H]5[C@H](C4)[C@@]5(CN)c4ccccc4F)cnc23)cc1F` [Example 399], the pIC50 in assay [1] was over 6.30; in assay [2] it was over 6.00.
For the compound `Cn1cc2c(Cl)c(Sc3ccc4nc(N5CC[C@@H]6[C@H](C5)[C@@]6(CN)c5ccccc5F)cnc4n3)ccc2n1` [Example 400, ((1S,6R,7R)-3-(6-((4-chloro-2-methyl-2H-indazol-5-yl)thio)pyrido[2,3-b]pyrazin-2-yl)-7-(2-fluorophenyl)-3-azabicyclo[4.1.0]heptan-7-yl)methanamine], the pIC50 in assay [1] is over 6.30; in assay [2] (Homo sapiens, KYSE-520, 2 h) it was over 6.00.
For the compound `NC[C@]1(c2ccccc2F)[C@@H]2CCN(c3cnc(Sc4ccnc(N)c4Cl)cn3)C[C@@H]21` [Example 401, 4-((5-((1S,6R,7R)-7-(aminomethyl)-7-(2-fluorophenyl)-3-azabicyclo[4.1.0]heptan-3-yl)pyrazin-2-yl)thio)-3-chloropyridin-2-amine], the pIC50 was over 6.30 in assay [1] and over 6.00 in assay [2] (Homo sapiens, KYSE-520, 2 h).
For `NC[C@]1(c2cc(F)ccc2F)[C@@H]2CCN(c3cnc(Sc4ccnc(-n5cccn5)c4Cl)cn3)C[C@@H]21` [Example 402, ((1S,6R,7R)-3-(5-((3-chloro-2-(1H-pyrazol-1-yl)pyridin-4-yl)thio)pyrazin-2-yl)-7-(2,5-difluorophenyl)-3-azabicyclo[4.1.0]heptan-7-yl)methanamine], the pIC50 in assay [1] is over 6.30; in assay [2] (Homo sapiens, KYSE-520, 2 h) it was over 6.00.
As to `NCC1(c2ccccc2F)[C@@H]2CCN(c3cnc(Sc4ccnc(-n5cccn5)c4Cl)cn3)CC[C@@H]21` (stereo partly drawn) [Example 403, ((1R,7S)-4-(5-((3-chloro-2-(1H-pyrazol-1-yl)pyridin-4-yl)thio)pyrazin-2-yl)-8-(2-fluorophenyl)-4-azabicyclo[5.1.0]octan-8-yl)methanamine], the pIC50 was over 6.30 in assay [1] and under 5.30 in assay [2] (Homo sapiens, KYSE-520, 2 h).
The matching figures for `Cn1cc2c(Cl)c(-c3n[nH]c4nc(N5CC[C@@H]6[C@H](CC5)C6(CN)c5ccccc5F)cnc34)ccc2n1` (stereo partly drawn) [Example 404, ((1R,7S)-4-(3-(4-chloro-2-methyl-2H-indazol-5-yl)-1H-pyrazolo[3,4-b]pyrazin-6-yl)-8-(2-fluorophenyl)-4-azabicyclo[5.1.0]octan-8-yl)methanamine]: over 6.30 and over 6.00.
On to `NC[C@]1(c2ccccc2F)[C@@H]2CCN(c3cnc4c(-c5ccc6[nH]ccc6c5Cl)n[nH]c4n3)C[C@@H]21` [Example 405, ((1S,6R,7R)-3-(3-(4-chloro-1H-indol-5-yl)-1H-pyrazolo[3,4-b]pyrazin-6-yl)-7-(2-fluorophenyl)-3-azabicyclo[4.1.0]heptan-7-yl)methanamine], for which the pIC50 was over 6.30 in assay [1] and over 6.00 in assay [2] (Homo sapiens, KYSE-520, 2 h).
For `NC[C@]1(c2ccccc2F)[C@@H]2CCN(c3cnc4nc(N5CCCc6ncccc65)ccc4n3)C[C@@H]21` [Example 406, ((1S,6R,7R)-3-(6-(3,4-dihydro-1,5-naphthyridin-1(2H)-yl)pyrido[2,3-b]pyrazin-2-yl)-7-(2-fluorophenyl)-3-azabicyclo[4.1.0]heptan-7-yl)methanamine], the pIC50 in assay [1] is over 6.30; in assay [2] (Homo sapiens, KYSE-520, 2 h) it was over 6.00.
The corresponding values for `NC[C@]1(c2ccccc2F)[C@@H]2CCN(c3cnc4nc(Sc5ccncc5)ccc4n3)C[C@@H]21` [Example 407, ((1S,6R,7R)-7-(2-fluorophenyl)-3-(6-(pyridin-4-ylthio)pyrido[2,3-b]pyrazin-2-yl)-3-azabicyclo[4.1.0]heptan-7-yl)methanamine] are over 6.30 and over 6.00.
The matching figures for `NC[C@]1(c2ccccc2F)[C@@H]2CCN(c3cc(=O)n4cc(-c5cccc(Cl)c5Cl)ccc4n3)C[C@@H]21` [Example 408, 2-((1S,6R,7R)-7-(aminomethyl)-7-(2-fluorophenyl)-3-azabicyclo[4.1.0]heptan-3-yl)-7-(2,3-dichlorophenyl)-4H-pyrido[1,2-a]pyrimidin-4-one]: over 6.30 and under 5.30.
The corresponding values for `NC[C@]1(c2ccccc2F)[C@@H]2CCN(c3cnc4nc(Oc5ccc(F)cc5)ccc4n3)C[C@@H]21` [Example 409, ((1S,6R,7R)-3-(6-(4-fluorophenoxy)pyrido[2,3-b]pyrazin-2-yl)-7-(2-fluorophenyl)-3-azabicyclo[4.1.0]heptan-7-yl)methanamine] are over 6.30 and over 6.00.
Turning to `NC[C@]1(c2ccccc2F)[C@@H]2CCN(c3cc(=O)n4cc(Sc5ccnc(N)c5Cl)ccc4n3)C[C@@H]21` [Example 410, 7-((2-amino-3-chloropyridin-4-yl)thio)-2-((1S,6R,7R)-7-(aminomethyl)-7-(2-fluorophenyl)-3-azabicyclo[4.1.0]heptan-3-yl)-4H-pyrido[1,2-a]pyrimidin-4-one], the pIC50 is 5.52 to 6.30 in assay [1] and under 5.30 in assay [2] (Homo sapiens, KYSE-520, 2 h).
Take `Cc1nc(N2CC[C@@H]3[C@H](C2)[C@@]3(CN)c2cc(F)ccc2F)cc(=O)n1-c1cccc(Cl)c1Cl` [Example 411, 6-((1S,6R,7R)-7-(aminomethyl)-7-(2,5-difluorophenyl)-3-azabicyclo[4.1.0]heptan-3-yl)-3-(2,3-dichlorophenyl)-2-methylpyrimidin-4(3H)-one]: the pIC50 in assay [1] is under 5.52; in assay [2], under 5.30.
Consider `Cc1nc(N2CC[C@@H]3[C@H](C2)[C@@]3(CN)c2cc(F)ccc2F)cc(=O)n1-c1cccc(Cl)c1Cl` [Example 412, 6-((1S,6R,7R)-7-(aminomethyl)-7-(2,5-difluorophenyl)-3-azabicyclo[4.1.0]heptan-3-yl)-3-(2,3-dichlorophenyl)-2-methylpyrimidin-4(3H)-one], for which the pIC50 in assay [1] was over 6.30; in assay [2], over 6.00.
As to `NC[C@]1(c2ccccc2F)[C@@H]2CCN(c3cnc4c(-c5ccc6c(cnn6C6CC6)c5Cl)n[nH]c4n3)C[C@@H]21` [Example 413], the pIC50 in assay [1] was over 6.30; in assay [2], over 6.00.
For `NC[C@]1(c2cc(F)ccc2F)[C@@H]2CCN(c3cnc(Sc4ccnc(N)c4Cl)c(N)n3)C[C@@H]21` [Example 414, 3-((2-amino-3-chloropyridin-4-yl)thio)-6-((1S,6R,7R)-7-(aminomethyl)-7-(2,5-difluorophenyl)-3-azabicyclo[4.1.0]heptan-3-yl)pyrazin-2-amine], the pIC50 in assay [1] is over 6.30; in assay [2] (Homo sapiens, KYSE-520, 2 h), over 6.00.
The corresponding values for `Cn1cc2cc(-c3ccc4nc(N5CC[C@@H]6[C@H](C5)[C@@]6(CN)c5ccccc5F)cnc4n3)ccc2n1` [Example 415, ((1S,6R,7R)-7-(2-fluorophenyl)-3-(6-(2-methyl-2H-indazol-5-yl)pyrido[2,3-b]pyrazin-2-yl)-3-azabicyclo[4.1.0]heptan-7-yl)methanamine] are over 6.30 and over 6.00.
The corresponding values for `NC[C@]1(c2ccccc2F)[C@@H]2CCN(c3nccn4c(-c5cccc(Cl)c5Cl)ncc34)C[C@@H]21` [Example 416, ((1S,6R,7R)-3-(3-(2,3-dichlorophenyl)imidazo[1,5-a]pyrazin-8-yl)-7-(2-fluorophenyl)-3-azabicyclo[4.1.0]heptan-7-yl)methanamine] are over 6.30 and under 5.30.
In the case of `NC[C@]1(c2ccccc2F)[C@@H]2CCN(c3cnc4c(-c5ccc6c(c5)ncn6C(F)F)n[nH]c4n3)C[C@@H]21` [Example 418], the values for the pIC50 in assay [1] and in assay [2] were over 6.30 and over 6.00, respectively.
For the compound `Cc1nccc(Sc2ccc3nc(N4CC[C@@H]5[C@H](C4)[C@@]5(CN)c4ccccc4F)cnc3n2)c1F` [Example 419, ((1S,6R,7R)-3-(6-((3-fluoro-2-methylpyridin-4-yl)thio)pyrido[2,3-b]pyrazin-2-yl)-7-(2-fluorophenyl)-3-azabicyclo[4.1.0]heptan-7-yl)methanamine], the pIC50 in assay [1] was over 6.30; in assay [2] (Homo sapiens, KYSE-520, 2 h), over 6.00.
On to `NC[C@]1(c2ccccc2F)[C@@H]2CCN(c3cnc4c(-c5ccc6nn(C7CC7)cc6c5Cl)n[nH]c4n3)C[C@@H]21` [Example 420], for which the figures for the pIC50 in assay [1] and in assay [2] were over 6.30 and over 6.00, respectively.
`NC[C@]1(c2ccccc2F)[C@@H]2CCN(c3cnc(Sc4ccc(C(N)=O)cc4Cl)cn3)C[C@@H]21` [Example 421, 4-((5-((1S,6R,7R)-7-(aminomethyl)-7-(2-fluorophenyl)-3-azabicyclo[4.1.0]heptan-3-yl)pyrazin-2-yl)thio)-3-chlorobenzamide]: the pIC50 was over 6.30 in assay [1] and over 6.00 in assay [2] (Homo sapiens, KYSE-520, 2 h).
